Values joined by “and” are separate entries in the source; they are usually repeats but may differ in a detail not shown here. Identical values can stand only once. Inconclusive results and toxic doses are left out.
Tested on: BDF1 mice, P388 leukemia ip, median survival T/C
Experiment: NCI In Vivo Anticancer Drug Screen. Data for tumor model P388 Leukemia (intraperitoneal) in B6D2F1 (BDF1) mice
Conditions: endpoint: median survival time, higher = longer survival
Outline: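 T/C = treated-group survival ÷ vehicle-control survival; tumour transplanted into mice before dosing.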

[1] = dose: 50.0 mg/kg/injection, schedule: Q01DX009 (ip), vehicle: saline with Tween-80
[2] = dose: 100.0 mg/kg/injection, schedule: Q01DX009 (ip), vehicle: saline with Tween-80
[3] = dose: 12.5 mg/kg/injection, schedule: Q01DX009 (ip), vehicle: saline with Tween-80
[4] = dose: 25.0 mg/kg/injection, schedule: Q01DX009 (ip), vehicle: saline with Tween-80
[5] = dose: 200.0 mg/kg/injection, schedule: Q01DX009 (ip), vehicle: saline with Tween-80

Cc1ccc(Cl)cc1O
T/C [1]: 100 % of control
T/C [2]: 96 % of control
T/C (dose: 200.0 mg/kg/injection, schedule: Q04DX003 (ip), vehicle: saline + alcohol): 104 % of control
T/C (dose: 300.0 mg/kg/injection, schedule: Q04DX003 (ip), vehicle: saline + alcohol): 104 % of control
T/C (dose: 450.0 mg/kg/injection, schedule: Q04DX003 (ip), vehicle: saline + alcohol): 91 % of control

C=C(CCC(C(=O)O)C1CCC2(C)C3=C(CCC12C)C1(C)CCC(O)C(C)(C)C1CC3)C(C)C (stereo unspecified)
T/C (dose: 12.5 mg/kg/injection, schedule: Q01DX009 (sc), vehicle: steriod suspending solution): 100 % of control
T/C (dose: 25.0 mg/kg/injection, schedule: Q01DX009 (sc), vehicle: steriod suspending solution): 99 % of control
T/C (dose: 50.0 mg/kg/injection, schedule: Q01DX009 (ip), vehicle: steriod suspending solution): 87 % of control
T/C (dose: 50.0 mg/kg/injection, schedule: Q01DX009 (sc), vehicle: steriod suspending solution): 98 % of control
T/C (dose: 100.0 mg/kg/injection, schedule: Q01DX009 (ip), vehicle: steriod suspending solution): 92 % of control
T/C (dose: 100.0 mg/kg/injection, schedule: Q01DX009 (sc), vehicle: steriod suspending solution): 101 % of control and 106 % of control
T/C (dose: 200.0 mg/kg/injection, schedule: Q01DX009 (sc), vehicle: steriod suspending solution): 91 % of control

Clc1ccc(-c2ncc3cnccn23)cc1Cl
T/C (dose: 0.78 mg/kg/injection, schedule: Q04DX003 (ip), vehicle: saline with Tween-80): 92 % of control
T/C (dose: 1.56 mg/kg/injection, schedule: Q01DX009 (ip), vehicle: saline with Tween-80): 89 % of control
T/C (dose: 1.56 mg/kg/injection, schedule: Q04DX003 (ip), vehicle: saline with Tween-80): 90 % of control
T/C (dose: 3.12 mg/kg/injection, schedule: Q01DX009 (ip), vehicle: saline with Tween-80): 95 % of control
T/C (dose: 3.12 mg/kg/injection, schedule: Q04DX003 (ip), vehicle: saline with Tween-80): 94 % of control
T/C (dose: 6.25 mg/kg/injection, schedule: Q01DX009 (ip), vehicle: saline with Tween-80): 95 % of control
T/C (dose: 6.25 mg/kg/injection, schedule: Q04DX003 (ip), vehicle: saline with Tween-80): 100 % of control
T/C [3]: 99 % of control
T/C [4]: 100 % of control
T/C [1]: 100 % of control

O=C(O)c1ccc(NC(=O)C(F)(F)F)cc1
T/C (dose: 25.0 mg/kg/injection, schedule: Q04DX003 (ip), vehicle: saline sonified): 86 % of control
T/C (dose: 100.0 mg/kg/injection, schedule: Q04DX003 (ip), vehicle: saline sonified): 95 % of control

Cc1cc2nc(Oc3ccccc3)nc(=O)n2c(C)n1
T/C [3]: 109 % of control
T/C [4]: 114 % of control
T/C [1]: 97 % of control

CCOC(=O)CC/[N+]([O-])=C/c1ccccc1
T/C (dose: 12.5 mg/kg/injection, schedule: Q01DX009 (ip), vehicle: other): 97 % of control
T/C (dose: 25.0 mg/kg/injection, schedule: Q01DX009 (ip), vehicle: other): 112 % of control
T/C (dose: 50.0 mg/kg/injection, schedule: Q01DX009 (ip), vehicle: other): 92 % of control
T/C (dose: 100.0 mg/kg/injection, schedule: Q01DX009 (ip), vehicle: other): 97 % of control
T/C (dose: 200.0 mg/kg/injection, schedule: Q01DX009 (ip), vehicle: other): 104 % of control

O=C(c1ccccc1)C1(C(=O)c2ccccc2)c2ccccc2-c2ccccc21
T/C (dose: 50.0 mg/kg/injection, schedule: Q01DX005 (ip), vehicle: Klucel (hydroxypropylcellulose) (HPC)): 101 % of control
T/C (dose: 100.0 mg/kg/injection, schedule: Q01DX005 (ip), vehicle: Klucel (hydroxypropylcellulose) (HPC)): 104 % of control
T/C (dose: 200.0 mg/kg/injection, schedule: Q01DX005 (ip), vehicle: Klucel (hydroxypropylcellulose) (HPC)): 101 % of control

COc1ccc(OC)c2c1C(=O)c1ccccc1C2=O
T/C [4]: 100 % of control
T/C [1]: 105 % of control
T/C [2]: 90 % of control
T/C [5]: 106 % of control
T/C (dose: 400.0 mg/kg/injection, schedule: Q01DX009 (ip), vehicle: saline with Tween-80): 103 % of control

CCOP(=S)(N1CC1(C)C)N1CC1(C)C (stereo unspecified)
T/C (dose: 264.0 mg/kg/injection, schedule: Q04DX003 (ip), vehicle: saline with Tween-80): 229 % of control

COc1cccc(CC(N)=O)c1OC
T/C (dose: 25.0 mg/kg/injection, schedule: Q01DX009 (ip), vehicle: saline): 99 % of control
T/C (dose: 50.0 mg/kg/injection, schedule: Q01DX009 (ip), vehicle: saline): 99 % of control
T/C (dose: 50.0 mg/kg/injection, schedule: Q04DX003 (ip), vehicle: saline): 109 % of control
T/C (dose: 100.0 mg/kg/injection, schedule: Q01DX009 (ip), vehicle: saline): 97 % of control
T/C (dose: 100.0 mg/kg/injection, schedule: Q04DX003 (ip), vehicle: saline): 87 % of control and 99 % of control
T/C (dose: 200.0 mg/kg/injection, schedule: Q01DX009 (ip), vehicle: saline): 92 % of control
T/C (dose: 200.0 mg/kg/injection, schedule: Q04DX003 (ip), vehicle: saline): 90 % of control and 94 % of control
T/C (dose: 400.0 mg/kg/injection, schedule: Q04DX003 (ip), vehicle: saline): 100 % of control

CC(=O)N1C(=O)N(Cl)C(=O)C1(C)c1cccs1 (stereo unspecified)
T/C (dose: 66.0 mg/kg/injection, schedule: Q01DX009 (ip), vehicle: saline with Tween-80): 97 % of control
T/C [2]: 103 % of control
T/C [5]: 100 % of control

COc1ccc(C(c2ccc(OC)cc2)C(Cl)(Cl)Cl)cc1
T/C (dose: 100.0 mg/kg/injection, schedule: Q01DX001 (ip), vehicle: Klucel (hydroxypropylcellulose) (HPC)): 104 % of control
T/C (dose: 200.0 mg/kg/injection, schedule: Q01DX001 (ip), vehicle: Klucel (hydroxypropylcellulose) (HPC)): 100 % of control
T/C (dose: 400.0 mg/kg/injection, schedule: Q01DX001 (ip), vehicle: Klucel (hydroxypropylcellulose) (HPC)): 100 % of control

CC(=O)n1cc(CCC(=O)O)c2ccccc21
T/C (dose: 100.0 mg/kg/injection, schedule: Q04DX002 (ip), vehicle: saline with Tween-80): 106 % of control
T/C (dose: 200.0 mg/kg/injection, schedule: Q04DX002 (ip), vehicle: saline with Tween-80): 101 % of control
T/C (dose: 400.0 mg/kg/injection, schedule: Q04DX002 (ip), vehicle: saline with Tween-80): 102 % of control

CC1(C)CCCC(C(Cc2ccc3ccccc3n2)c2ccccc2)C1=O (stereo unspecified)
T/C (dose: 100.0 mg/kg/injection, schedule: Q01DX001 (ip), vehicle: saline with Tween-80): 98 % of control
T/C (dose: 200.0 mg/kg/injection, schedule: Q01DX001 (ip), vehicle: saline with Tween-80): 96 % of control
T/C (dose: 400.0 mg/kg/injection, schedule: Q01DX001 (ip), vehicle: saline with Tween-80): 88 % of control

From PubChem BioAssay AID328 (DTP/NCI, 2004)
